The record followed here is PubChem BioAssay (NCI).

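Cultured in 96-well plates, cells were exposed to test compound for 48 hours across five concentrations. The concentration for full growth arrest is given as TGI.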 Where only a bound is given, the exact number is not on record here.

Some test systems named below: OVCAR-8 ovarian; PC-3 prostate; MDA-N; ACHN renal; HT29 colon; CAKI-1 renal; SNB-75 CNS; SN12C renal; CCRF-CEM leukemia; SNB-19 CNS; NCI-H226 lung; SK-MEL-2 melanoma; A498 renal; MDA-MB-435; K-562 leukemia; NCI-H23 lung; A549 NSCLC; HS 578T breast; HCC-2998 colon; SR leukemia.
What all share (test): NCI anticancer screen, dose series, 48 h

Take `O=C(N/N=C/c1ccco1)c1cc(I)cc(I)c1O`: the TGI in the test on OVCAR-8 ovarian, in the test with PC-3 prostate, in the test on MDA-N, in the test on ACHN renal, in the test with HT29 colon and in the test with CAKI-1 renal was greater than 50 µM in each case. Moreover, the TGI was greater than 50 µM in the test on SNB-75 CNS; 38.7 µM in the test with SN12C renal; greater than 50 µM with CCRF-CEM leukemia; greater than 50 µM in the test with SNB-19 CNS; 39.7 µM with NCI-H226 lung; 19.7 µM in the test on SK-MEL-2 melanoma. In addition, the TGI in the test with A498 renal was 32.8 µM; in the test on MDA-MB-435 it was greater than 50 µM; with K-562 leukemia, greater than 50 µM; in the test with NCI-H23 lung, greater than 50 µM; in the test with A549 NSCLC it was greater than 50 µM; in the test with HS 578T breast, greater than 50 µM.

In the case of `C=C1CC(C)(c2ccc(Nc3nc4ccccc4c4occc34)cc2)OC1=O` (stereo not drawn), the TGI was 11.4 µM in the test on OVCAR-8 ovarian; 20 µM in the test with PC-3 prostate; 12.7 µM in the test with MDA-N; 17.8 µM in the test with ACHN renal; 12.6 µM in the test with HT29 colon; 40.3 µM with CAKI-1 renal. Besides, the TGI in the test on HCC-2998 colon came to 5.63 µM; in the test on SNB-75 CNS it was 6.56 µM; in the test on SN12C renal it was 4.91 µM; in the test with CCRF-CEM leukemia, 3.76 µM; in the test on SNB-19 CNS it was 34.6 µM; in the test with NCI-H226 lung, 1.94 µM. Moreover, the TGI in the test on SR leukemia is 4.53 µM; in the test with A498 renal, 33.8 µM; in the test on MDA-MB-435 it was 6.09 µM; with K-562 leukemia, greater than 100 µM; in the test on NCI-H23 lung, 4.55 µM; in the test with A549 NSCLC it was 23.7 µM.

With `CC(=O)OCC(OC(C)=O)C1C[C@H]2O[C@@H]3[C@H](C[C@H]2O1)O[C@@]1(C[C@@H]3C)C[C@H](C)[C@@H]2O[C@]3(C[C@@H]2O1)C[C@H]1O[C@H]2[C@H](C)[C@H]4OC(=O)CC5CC[C@H]6OC7[C@H]8O[C@]9(CC[C@H]%10CC(O)(CO)[C@H](CC[C@H]%11C[C@@H](C)C(O)(CO)C(C[C@@H]4O[C@H]2C[C@H]1O3)O%11)O%10)CC8O[C@@H]7[C@@H](O9)[C@H]6O5` (stereo partly drawn), the TGI with OVCAR-8 ovarian was greater than 0.271 µM; with PC-3 prostate it was greater than 1 µM; with ACHN renal it was greater than 1 µM; with CAKI-1 renal it was greater than 1 µM; in the test on SNB-75 CNS, greater than 1 µM; in the test on SN12C renal it was greater than 1 µM. In addition, the TGI is greater than 1 µM in the test on CCRF-CEM leukemia; greater than 1 µM in the test with SNB-19 CNS; 0.142 µM with NCI-H226 lung; greater than 1 µM in the test on SR leukemia; greater than 1 µM in the test with SK-MEL-2 melanoma; greater than 1 µM in the test with A498 renal. Also, the TGI was 0.0139 µM in the test on MDA-MB-435, greater than 1 µM in the test with K-562 leukemia, greater than 1 µM in the test with A549 NSCLC and 0.00517 µM in the test with HS 578T breast.

Take `Clc1ccc(OCc2nnc(CCCCCCCCc3nnc(COc4ccc(Cl)cc4)n3Nc3ccccc3)n2Nc2ccccc2)cc1`: the TGI with OVCAR-8 ovarian is greater than 100 µM; in the test with PC-3 prostate it was greater than 100 µM; with MDA-N it was 37.1 µM; in the test on ACHN renal, greater than 93 µM; in the test with HT29 colon, 34.3 µM; in the test with CAKI-1 renal it was 27.2 µM. The TGI in the test on HCC-2998 colon is greater than 68.7 µM; in the test with SNB-75 CNS it was greater than 100 µM; in the test with SN12C renal it was 99 µM; with SNB-19 CNS, greater than 100 µM; in the test on NCI-H226 lung, greater than 100 µM; with SK-MEL-2 melanoma, 63.5 µM. Moreover, the TGI in the test with A498 renal was greater than 100 µM; in the test on MDA-MB-435 it was greater than 63.4 µM; in the test with K-562 leukemia, greater than 100 µM; in the test with NCI-H23 lung it was greater than 100 µM; in the test with A549 NSCLC, greater than 83.3 µM; in the test with HS 578T breast, greater than 100 µM.

Turning to `COc1ccc(-c2c(C#N)c(N)nc3c2CCS(=O)(=O)c2ccccc2-3)cc1`, the TGI in the test on OVCAR-8 ovarian, with PC-3 prostate, with ACHN renal, with HT29 colon, in the test with CAKI-1 renal and in the test with HCC-2998 colon was greater than 100 µM throughout. Further, the TGI with SNB-75 CNS, with SN12C renal, in the test with CCRF-CEM leukemia, in the test with SNB-19 CNS, in the test with NCI-H226 lung and in the test on SR leukemia was greater than 100 µM throughout. The TGI in the test with SK-MEL-2 melanoma, in the test on A498 renal, in the test on MDA-MB-435, in the test on K-562 leukemia, in the test with NCI-H23 lung and in the test with A549 NSCLC was greater than 100 µM in each case. This compound displayed a TGI in the test with HS 578T breast greater than 100 µM.

With `CSc1nc2c(c(=O)n1C)N=C(c1ccccc1)[C@H](C(CC(=O)c1ccccc1)c1ccccc1)C(c1ccccc1)N2` (stereo partly drawn), the TGI with OVCAR-8 ovarian, in the test on PC-3 prostate, in the test on MDA-N, with ACHN renal, in the test with HT29 colon and in the test with CAKI-1 renal was greater than 100 µM throughout. Besides, the TGI in the test with HCC-2998 colon, with SNB-75 CNS, in the test with SN12C renal, with CCRF-CEM leukemia, with SNB-19 CNS and in the test on NCI-H226 lung was greater than 100 µM each time. The TGI in the test with SR leukemia, in the test with SK-MEL-2 melanoma, in the test with A498 renal, in the test with MDA-MB-435, with K-562 leukemia and with NCI-H23 lung was greater than 100 µM throughout. The compound further had a TGI in the test on A549 NSCLC greater than 100 µM.

Consider `O=C1C=C(c2ccccc2)O/C1=C/C(=O)c1ccc(Cl)cc1`, for which the TGI with OVCAR-8 ovarian was determined as 74.8 µM; in the test on PC-3 prostate it was 27.3 µM; with MDA-N, 30.2 µM; in the test on ACHN renal it was 30.5 µM; in the test on HT29 colon, 36.5 µM; in the test on CAKI-1 renal, 27.6 µM. The TGI with HCC-2998 colon was 32.2 µM; with SNB-75 CNS it was 23.6 µM; in the test on SN12C renal, 29.9 µM; with CCRF-CEM leukemia it was greater than 100 µM; in the test on SNB-19 CNS, greater than 100 µM; in the test on A498 renal, 75.4 µM. The TGI stood at 28.5 µM in the test with MDA-MB-435, 33.7 µM with K-562 leukemia and 55.5 µM with HS 578T breast.
